In patent US20190374627A1, “TARGET PEPTIDES FOR CANCER THERAPY AND DIAGNOSTICS” (priority 2016, published 2019):
Square brackets hold non-standard residues; d marks the D form. Ends that are not written are not given here. pT = C[C@@H](OP(=O)(O)O)[C@H](N)C(=O)O; pS = N[C@@H](COP(=O)(O)O)C(=O)O

Key:
[1] = system: expanded lymphocyte cultures from deceased donor livers, cirrhotic livers and HCC; assay: ICS for MHC-I-pP reactivity of liver-derived lymphocyte cultures after phosphopeptide-specific expansion; format: cell-based, human; settings: for ppCTL response, Deceased Donor Liver Do 2 / ppCTL response, Deceased Donor Liver Do 3 / ppCTL response, Deceased Donor Liver Do 4 / ppCTL response, Deceased Donor Liver Do 6 / ppCTL response, End-stage Liver Cirrhosis IHL 11 / ppCTL response, End-stage Liver Cirrhosis IHL 12 / ppCTL response, End-stage Liver Cirrhosis IHL 13 / ppCTL response, End-stage Liver Cirrhosis IHL 15 / ppCTL response, HCC Distal HCC 1 / ppCTL response, HCC Tumor HCC 1 / ppCTL response, HCC Distal HCC 4 / ppCTL response, HCC Distal HCC 9 / ppCTL response, HCC Tumor HCC 9 / ppCTL response, HCC Distal HCC 12: pP-specifically expanded culture; for ppCTL response, HCC Distal HCC 1: HCC 1 Distal; for ppCTL response, HCC Tumor HCC 1: HCC 1 Tumor; for ppCTL response, HCC Distal HCC 4: HCC 4 Distal; for ppCTL response, HCC Distal HCC 9: HCC 9 Distal; for ppCTL response, HCC Tumor HCC 9: HCC 9 Tumor; for ppCTL response, HCC Distal HCC 12: HCC 12 Distal
[2] = system: expanded TIL / IHL cultures; assay: ICS for MHC-I-pP reactivity of liver-derived lymphocyte cultures after unspecific rapid expansion protocol (REP); format: cell-based, human
[3] = system: unexpanded lymphocyte cultures (CD8^+ T cells); assay: ICS for MHC-I-pP reactivity of lymphocyte cultures without expansion (Table 23, No Expansion); settings: HH6
CD8^+ T cells (PBMCs) = assay: Intracellular cytokine staining (ICS) of PBMCs after 7 days of stimulation with MHC-I-pP (healthy donors, HH patients); format: cell-based, human; settings: for Reactive CD8^+ T cell population, HH2: HH patient HH2; for Reactive CD8^+ T cell population, HH3: HH patient HH3; for Reactive CD8^+ T cell population, HH6: HH patient HH6; for Reactive CD8^+ T cell population, HH8: HH patient HH8; for Reactive CD8^+ T cell population, HD1: Healthy donor HD1; for Reactive CD8^+ T cell population, HD4: Healthy donor HD4; for Reactive CD8^+ T cell population, HD5: Healthy donor HD5
Description: From this, CD8^+ T cell responses against newly identified MHC class I-associated phosphopeptides in healthy individuals and patients with chronic liver disease were investigated. Twenty-one of the newly identified HCC-associated HLA-A*0201-restricted phosphopeptides were selected (see Table 17) for further immunological testing in HLA-A*0201 positive patients. MHC-I-pP-specific cytotoxic CD8^+ T cell responses (ppCTL) were assessed using intracellular cytokine staining (ICS) and several cytokines and surface markers were assessed in parallel. After 7 days of stimulation with the respective MHC-I-pP and no other cytokines, CD3- and CD8-expressing T cells were stained for at least two different cytokines (IFN-γ, TNF-α) and when required CD107a expression as a marker for their cytotoxic potential.
First, peripheral blood mononuclear cells (PBMCs) from healthy donors and patients with hereditary hemochromatosis (HH) were analyzed. HH is a chronic liver disease characterized by excessive intestinal absorption of dietary iron resulting in a pathological deposition of iron in the liver. PBMCs or lymphocytes from liver tissue were extracted and specifically stimulated with (phospho-) peptides for 7 days before intracellular cytokine staining (ICS). Doublets and dead cells, using a fixable viability dye, were excluded. Lymphocytes were gated on CD3^+ and CD8^+ double positive cells and were analysed for expression of IFNγ, TNFα-, and CD107a.

Substance	Reactive CD8^+ T cells, pP-specific Expansion, Do2 [1]	Reactive CD8^+ T cells, pP-specific Expansion, Do4 [1]	Reactive CD8^+ T cells, pP-specific Expansion, HH6 [1]	ppCTL response, Deceased Donor Liver Do 2 [1]	ppCTL response, Deceased Donor Liver Do 3 [1]	ppCTL response, Deceased Donor Liver Do 4 [1]	ppCTL response, Deceased Donor Liver Do 6 [1]	ppCTL response, End-stage Liver Cirrhosis IHL 11 [1]	ppCTL response, End-stage Liver Cirrhosis IHL 12 [1]	ppCTL response, End-stage Liver Cirrhosis IHL 13 [1]	ppCTL response, End-stage Liver Cirrhosis IHL 15 [1]	ppCTL response, HCC Distal HCC 1 [1]	ppCTL response, HCC Tumor HCC 1 [1]	ppCTL response, HCC Distal HCC 4 [1]	ppCTL response, HCC Distal HCC 9 [1]	ppCTL response, HCC Tumor HCC 9 [1]	ppCTL response, HCC Distal HCC 12 [1]	Reactive CD8^+ T cells, Non-specific Expansion, Do2 [2]	Reactive CD8^+ T cells, Non-specific Expansion, Do4 [2]	Reactive CD8^+ T cells, Non-specific Expansion, HH6 [2]	other results
AVVsPPALHNA: BRD4 phosphopeptide, HLA-A*0201 (AVV[pS]PPALHNA; listed as Homo sapiens)	0 (<0.25% reactive CD8^-+ T cells)	0 (<0.25% reactive CD8^-+ T cells)	2 (2.5-5.0% reactive CD8^-+ T cells)	0 (<0.25% reactive CD8-+ T cells)	0 (<0.25% reactive CD8-+ T cells)	0 (<0.25% reactive CD8-+ T cells)	0 (<0.25% reactive CD8-+ T cells)	0 (<0.25% reactive CD8-+ T cells)	0 (<0.25% reactive CD8-+ T cells)	0 (<0.25% reactive CD8-+ T cells)	0 (<0.25% reactive CD8-+ T cells)	0 (<0.25% reactive CD8-+ T cells)	0 (<0.25% reactive CD8-+ T cells)	0 (<0.25% reactive CD8-+ T cells)	0 (<0.25% reactive CD8-+ T cells)	1 (0.25-2.5% reactive CD8-+ T cells)	0 (<0.25% reactive CD8-+ T cells)	0 (<0.25% reactive CD8^-+ T cells)	0 (<0.25% reactive CD8^-+ T cells)	0 (<0.25% reactive CD8^-+ T cells)	Reactive CD8^+ T cells, No Expansion, HH6 [3]: 2 (2.5-5.0% reactive CD8^-+ T cells); Reactive CD8^+ T cell population, HH2 (CD8^+ T cells (PBMCs)): 0 (<0.25% reactive CD8^-+ T cells); Reactive CD8^+ T cell population, HH3 (CD8^+ T cells (PBMCs)): 0 (<0.25% reactive CD8^-+ T cells); Reactive CD8^+ T cell population, HH6 (CD8^+ T cells (PBMCs)): 2 (2.5-5.0% reactive CD8^-+ T cells); Reactive CD8^+ T cell population, HH8 (CD8^+ T cells (PBMCs)): 0 (<0.25% reactive CD8^-+ T cells); Reactive CD8^+ T cell population, HD1 (CD8^+ T cells (PBMCs)): 0 (<0.25% reactive CD8^-+ T cells); Reactive CD8^+ T cell population, HD4 (CD8^+ T cells (PBMCs)): 0 (<0.25% reactive CD8^-+ T cells); Reactive CD8^+ T cell population, HD5 (CD8^+ T cells (PBMCs)): 0 (<0.25% reactive CD8^-+ T cells)
FLDtPIAKV: NKD1 phosphopeptide, HLA-A*0201 (FLD[pT]PIAKV; listed as Homo sapiens)	0 (<0.25% reactive CD8^-+ T cells)	0 (<0.25% reactive CD8^-+ T cells)	2 (2.5-5.0% reactive CD8^-+ T cells)	0 (<0.25% reactive CD8-+ T cells)	0 (<0.25% reactive CD8-+ T cells)	0 (<0.25% reactive CD8-+ T cells)	0 (<0.25% reactive CD8-+ T cells)	0 (<0.25% reactive CD8-+ T cells)	0 (<0.25% reactive CD8-+ T cells)	0 (<0.25% reactive CD8-+ T cells)	0 (<0.25% reactive CD8-+ T cells)	0 (<0.25% reactive CD8-+ T cells)	0 (<0.25% reactive CD8-+ T cells)	0 (<0.25% reactive CD8-+ T cells)	0 (<0.25% reactive CD8-+ T cells)	0 (<0.25% reactive CD8-+ T cells)	0 (<0.25% reactive CD8-+ T cells)	1 (0.25-2.5% reactive CD8^-+ T cells)	0 (<0.25% reactive CD8^-+ T cells)	0 (<0.25% reactive CD8^-+ T cells)	Reactive CD8^+ T cells, No Expansion, HH6 [3]: 0 (<0.25% reactive CD8^-+ T cells); Reactive CD8^+ T cell population, HH2 (CD8^+ T cells (PBMCs)): 0 (<0.25% reactive CD8^-+ T cells); Reactive CD8^+ T cell population, HH3 (CD8^+ T cells (PBMCs)): 0 (<0.25% reactive CD8^-+ T cells); Reactive CD8^+ T cell population, HH6 (CD8^+ T cells (PBMCs)): 0 (<0.25% reactive CD8^-+ T cells); Reactive CD8^+ T cell population, HH8 (CD8^+ T cells (PBMCs)): 0 (<0.25% reactive CD8^-+ T cells); Reactive CD8^+ T cell population, HH11 (CD8^+ T cells (PBMCs); HH patient HH11): 0 (<0.25% reactive CD8^-+ T cells); Reactive CD8^+ T cell population, HD1 (CD8^+ T cells (PBMCs)): 0 (<0.25% reactive CD8^-+ T cells); Reactive CD8^+ T cell population, HD4 (CD8^+ T cells (PBMCs)): 0 (<0.25% reactive CD8^-+ T cells); Reactive CD8^+ T cell population, HD5 (CD8^+ T cells (PBMCs)): 0 (<0.25% reactive CD8^-+ T cells)
